Experimental data as given in article PMC11767451, “Novel Approaches to Monitor Pharmacokinetics and Metabolism of Gemcitabine-Ibandronate Conjugate in Mice and Dogs” (Molecules, 2025).

Experiments:
[1] = Proof-of-concept mouse PK study, plasma levels of GEM-IB and metabolites by HPLC-MS/MS; assay type: in vivo, mice; details: for Cmax: analyte = parent or metabolite; for AUC: over the observation period
Experimental: (§1) Assay A (GEM-IB and IB): The extraction of calibration standards, quality control samples, and PK study samples was identical. Plasma, quality control stocks, and calibrator stocks were removed from the storage freezer and kept at room temperature until fully thawed. Aliquots of 100 μL of standards/quality control or blank sample were transferred into a 1.5 mL low-binding polypropylene vial with a conical bottom and snap-on lid. An amount of 10 µL of the of the internal standard solution (15 and 10 µg/mL of IB-D3 and ATP-IS, respectively) was added and mixed. For protein precipitation, 50 μL of methanol was added and then samples were vortexed for 10 min. This was followed by centrifugation at 25,000× g for ten minutes at 4 °C (Thermo Scientific MR 23i Centrifuge, Thermo Scientific, Waltham, MA, USA). To remove remaining protein, the supernatant was transferred to 10,000 molecular weight cut off (MWCO) centrifugal filters (800 µL volume, PES 10,000 with 2.0 mL receiver tubes, Analytical Sales and Services, Flanders, NJ, USA) and centrifuged again at 25,000× g for ten minutes at 4 °C. The filtrate was transferred into HPLC vials and placed into the HPLC autosampler maintained at 4 °C.
(§2) Assay B (GEMMP, GEM dFdUMP and dFdU): The extraction of calibration standards and quality control samples was identical to that of study samples. An amount of 200 µL of plasma sample was added to a 1.5 mL snap-top Eppendorf tube with 100 µL of protein precipitation solution. The samples were then vortexed for five minutes followed by centrifugation at 25,000× g for ten minutes at 4 °C. Hereafter, supernatants were transferred to 10K Amicon centrifugal filters (Merck-Millipore, Burlington, MA, USA) and centrifuged at the same settings for 60 min. The filtrates were then transferred into HPLC vials for analysis.
(§3) Assay A (GEM-IB and IB): Quantification of the analytes was carried out using high-performance liquid chromatography–tandem mass spectrometry (HPLC-MS/MS). Chromatography was performed using an Agilent 1260 Infinity II bio-inert HPLC system (Agilent Technologies, Santa Clara, CA, USA) on a Hypercarb Porous Graphitic Carbon HPLC column (3 µm, 2.1 × 50 mm, Thermo Scientific, Waltham, MA, USA). The HPLC system consisted of an Agilent 1260 Infinity II bio-inert quaternary pump, an Agilent 1260 Infinity II bio-inert column oven, and an Agilent 1260 Infinity II bio-inert autosampler (Agilent Technologies, Santa Clara, CA, USA). An amount of 10 µL of the sample extracts was injected. The column was maintained at 22 °C. HPLC-MS-grade water supplemented with 10 mM hexafluoroisopropanol (HFIP) and 0.05% (v/v) diethyl amine (DEA) at pH 9.4 was used for the aqueous mobile phase (Buffer A) and HPLC-grade acetonitrile was used for the organic mobile phase (Buffer B). The flow rate was set to 400 µL/min throughout the assay. The initial settings were 98% Buffer A and 2% organic Buffer B for the first two minutes. During the following 0.7 min, the organic Buffer B was increased to 30%. At minute 3.5, the gradient reached 98% Buffer B, which was kept for 0.5 min, and at minute 4.2 the column was re-equilibrated to starting conditions for 2.8 min until the next injection. The HPLC system was connected to a Sciex a 5500+ triple quadrupole mass spectrometer (SCIEX, Concord, ON, Canada) via a turbo electrospray ionization source (SCIEX) operated in the negative electrospray ionization (ESI) mode. Data were acquired in negative multiple reaction monitoring (MRM) mode and all compounds were detected as [M–H ]^−. The ion transitions used during the multiple reaction monitoring mode were m/z = 318→236, 321→239, 643→342, and 521→79 for IB, IB-D3, GEM-IB, and adenosine-^13C10,^15N5 5′-triphosphate (^13C10-^15N5-ATP), respectively. The dwell time for analysis was set to 50 ms. The curtain gas was kept at 20 psi and the ion source gas at 55 psi. The ion spray voltage was −4500 volts, and the temperature of the ion source was set to 400 °C. […]

[2] = Proof-of-concept dog PK study, plasma levels of GEM-IB and metabolites by HPLC-MS/MS; assay type: in vivo, beagle dogs; details: for half-life: dog, plasma, 5 mg/kg; for Cmax: analyte = parent or metabolite; for AUC: over the observation period
Experimental: as §1, §2, §3

[3] = ip, after GEM-IB 5 mg/kg i.p., read-out: Tmax
[4] = mouse, plasma, ip, 5 mg/kg, after GEM-IB 5 mg/kg i.p., read-out: AUC
[5] = mouse, plasma, ip, 5 mg/kg, after GEM-IB 5 mg/kg i.p., read-out: T1/2 (converted)
[6] = mouse, plasma, ip, 5 mg/kg, after i.p. injection of GEM-IB 5 mg/kg, read-out: half-life
[7] = after GEM-IB 5 mg/kg 30 min i.v. infusion
[8] = beagle, iv, after GEM-IB 5 mg/kg 30 min i.v. infusion, read-out: T1/2 (converted)
[9] = beagle, iv, after the end of the 30 min i.v. infusion of GEM-IB 5 mg/kg, read-out: half-life
[10] = beagle, iv, after GEM-IB 5 mg/kg 30 min i.v. infusion

Rate Constant ([1]; after GEM-IB 5 mg/kg i.p.) [h⁻¹] | Cmax ([1]; ip, after GEM-IB 5 mg/kg i.p.) [ng/mL] | Tmax [1, 3] [min] | AUC [1, 4] [ng·h/mL] | half-life [1, 5] [min] | half-life [1, 6] [min] | Rate Constant [2, 7] [h⁻¹] | half-life [2, 8] [min] | half-life [2, 9] [min] | Tmax [2, 10] [min] | Cmax [2, 10] [ng/mL] | AUC [2, 10] [ng·h/mL] | Compound | also measured
2.6 | 22800 | 4.98 | 10700 | 16.1 | 16 | 0.7 | 55.9 | 55 | 30 | 4740 | 5720 | CCCCCN(C)CCC(O)(P(=O)(O)O)P(=O)(O)O [IB, ibandronate] | 
0.4 | 832 | 60 |  | 108 |  | 0.1 | 591 |  | 270 | 330 | 6570 | O=c1ccn([C@@H]2O[C@H](CO)[C@@H](O)C2(F)F)c(=O)[nH]1 [dFdU, 2′,2′-difluoro-2′-deoxyuridine] | 
11.1 | 130 | 4.98 |  | 3.78 |  | 7.0 | 5.94 |  | 30 | 23 | 11 | O=c1ccn([C@@H]2O[C@H](COP(=O)(O)O)[C@@H](O)C2(F)F)c(=O)[nH]1 [dFdUMP, 2′,2′-difluoro-2′-deoxyuridine-5′-phosphate] | AUC ([1]; after GEM-IB 5 mg/kg i.p.): 38 ng·h/mL; AUC ([1]; after GEM-IB 5 mg/kg i.p., listed as dFdU-MP): 3389 ng·h/mL
5.0 | 4180 | 4.98 | 1280 | 8.28 | 8 | 50.6 | 0.84 | < 1 | 30 | 795 | 295 | CCCCCN(C)CCC(O)(P(=O)(O)O)P(=O)(O)OP(=O)(O)OC[C@H]1O[C@@H](n2ccc(N)nc2=O)C(F)(F)[C@@H]1O (stereo partly drawn) [GEM-IB] | CL ([1]; after GEM-IB 5 mg/kg i.p.): 65.65 mL/min/kg; Vdss ([1]; after GEM-IB 5 mg/kg i.p.): 469 mL/kg; clearance [2, 10]: 284 mL/min/kg; Vd ([2]; beagle, iv, after GEM-IB 5 mg/kg 30 min i.v. infusion, read-out: Vdss): 1.93 L/kg
4.0 | 1310 | 4.98 | 405 | 10.3 |  |  |  |  | 30 | 224 | 83 | Nc1ccn([C@@H]2O[C@H](COP(=O)(O)O)[C@@H](O)C2(F)F)c(=O)n1 [GEMMP, gemcitabine-5′-phosphate] | plasma values after the infusion period [2, 7]: below the LLOQ

Compound | Rate Constant ([1]; after GEM-IB 5 mg/kg i.p.) [h⁻¹] | Cmax ([1]; ip, after GEM-IB 5 mg/kg i.p.) [ng/mL] | Tmax [1, 3] [min] | AUC [1, 4] [ng·h/mL] | half-life [1, 5] [min] | half-life [1, 6] [min] | Rate Constant [2, 7] [h⁻¹] | half-life [2, 8] [min] | half-life [2, 9] [min] | Tmax [2, 10] [min] | Cmax [2, 10] [ng/mL] | AUC [2, 10] [ng·h/mL] | also measured
Nc1ccn([C@@H]2O[C@H](CO)[C@@H](O)C2(F)F)c(=O)n1 [GEM, gemcitabine] | 1.5 | 2120 |  |  |  |  | 0.5 | 90.7 |  | 30 | 684 | 1620 | T1/2 ([1]; after GEM-IB 5 mg/kg i.p.): 26.9 min; Tmax ([1]; after GEM-IB 5 mg/kg i.p.): 4.98 min
